Results as given in the supplement of paper PMC10307832.

Key:
Assay in all cases: relative viability (nuclei count vs DMSO), 5 days (fraction); higher = more cells survive
Zosuquidar + Trametinib = compound: O[C@@H](COc1cccc2ncccc12)CN1CCN([C@@H]2c3ccccc3[C@@H]3[C@H](c4ccccc42)C3(F)F)CC1 [Zosuquidar] + CC(=O)Nc1cccc(-n2c(=O)n(C3CC3)c(=O)c3c(Nc4ccc(I)cc4F)n(C)c(=O)c(C)c32)c1 [Trametinib] (partner 0.02 µM)
In short: (§1)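 Relative viability was taken as the ratio of nuclei in treated wells to nuclei in vehicle wells. Lung cancer cell lines in 1536-well plates received compounds by pin tool one day after seeding, either one drug alone or a fixed anchor-drug dose plus five library-drug doses (not always all listed) in √10 steps. Nuclei were counted on 4× images after 5 days of treatment, and values are medians of duplicate plates.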

Kobe2602 + Bortezomib = compound: C1=CC(=CC=C1NC(=S)NNC2=C(C=C(C=C2[N+](=O)[O-])C(F)(F)F)[N+](=O)[O-])F [Kobe2602] + CC(C)C[C@H](NC(=O)[C@H](Cc1ccccc1)NC(=O)c1cnccn1)B(O)O [Bortezomib] (partner 0.002 µM)
In short: as §1

Kobe2602 + Luminespib = compound: C1=CC(=CC=C1NC(=S)NNC2=C(C=C(C=C2[N+](=O)[O-])C(F)(F)F)[N+](=O)[O-])F [Kobe2602] + CCNC(=O)c1noc(-c2cc(C(C)C)c(O)cc2O)c1-c1ccc(CN2CCOCC2)cc1 [Luminespib] (partner 0.01 µM)
In short: as §1

Kobe2602 + Pictilisib = compound: C1=CC(=CC=C1NC(=S)NNC2=C(C=C(C=C2[N+](=O)[O-])C(F)(F)F)[N+](=O)[O-])F [Kobe2602] + CS(=O)(=O)N1CCN(Cc2cc3nc(-c4cccc5[nH]ncc45)nc(N4CCOCC4)c3s2)CC1 [Pictilisib] (partner 1 µM)
In short: as §1

Cell Line	relative viability (Zosuquidar + Trametinib; first compound 0.01 µM)	relative viability (Zosuquidar + Trametinib; first compound 0.03162 µM)	relative viability (Zosuquidar + Trametinib; first compound 0.1 µM)	relative viability (Zosuquidar + Trametinib; first compound 0.3162 µM)	relative viability (Zosuquidar + Trametinib; first compound 1 µM)	relative viability (Kobe2602 + Bortezomib; first compound 0.2 µM)	relative viability (Kobe2602 + Bortezomib; first compound 0.6325 µM)	relative viability (Kobe2602 + Bortezomib; first compound 2 µM)	relative viability (Kobe2602 + Bortezomib; first compound 6.325 µM)	relative viability (Kobe2602 + Bortezomib; first compound 20 µM)	relative viability (Kobe2602 + Luminespib; first compound 0.2 µM)	relative viability (Kobe2602 + Luminespib; first compound 0.6325 µM)	relative viability (Kobe2602 + Luminespib; first compound 2 µM)	relative viability (Kobe2602 + Luminespib; first compound 6.325 µM)	relative viability (Kobe2602 + Luminespib; first compound 20 µM)	relative viability (Kobe2602 + Pictilisib; first compound 0.2 µM)	relative viability (Kobe2602 + Pictilisib; first compound 0.6325 µM)	relative viability (Kobe2602 + Pictilisib; first compound 2 µM)	relative viability (Kobe2602 + Pictilisib; first compound 6.325 µM)	relative viability (Kobe2602 + Pictilisib; first compound 20 µM)
NCI-H1792	0.522	0.427	0.41	0.535	0.421	0.965	0.901	1.09	0.985	0.986	0.319	0.58	0.47	0.558	0.517	0.24	0.337	0.389	0.252	0.303
NCI-H2085	0.513	0.481		0.617	0.548	1.07	1.08	0.99	1.07	1.11	0.393	0.466		0.478	0.436	0.484	0.448	0.483	0.466	0.489
LC-2-ad	0.91	0.901	0.812	0.92	0.911	0.946	1	0.941	1.02	0.993	1.01	1.15	0.908	1.12	1.06	0.614	0.54	0.459	0.441	0.477
201T	0.731	0.742	0.684	0.691	0.719	0.956	1.05	1.12	1.18	1.13	1.02	1.05	0.993	1.14	0.966	0.69	0.718	0.672	0.686	0.697
NCI-H2023	0.595	0.669	0.574	0.702	0.596	0.954	0.995	0.873	0.945	0.927	0.596	0.783	0.759	0.528	0.156	0.259	0.269	0.223	0.215	0.228
NCI-H2347	0.268	0.268	0.276	0.311	0.297	1.16	1.01	0.879	0.827	1.44	0.454	0.369	0.793		0.756	0.745	0.843	0.716	0.558	0.611
LXF-289	0.614	0.703	0.675	0.727	0.654	0.968	1.05	0.955	0.97	0.988	0.7	0.799	0.637	0.606	0.708	0.82	0.814	0.693	0.862	0.799
EKVX	0.33	0.415		0.359	0.335	1.13	1.08	0.994	1.02	1.1	0.9	0.948	0.832	0.871	0.858	0.461	0.422	0.386	0.412	0.426
NCI-H650	1.22	0.957	1	0.969	1.08	0.882	1.07	0.676	0.912	0.956	0.754	0.897	0.796	0.748	0.717	0.946	0.935	0.775	0.859	0.883
NCI-H1734	0.591	0.773	0.658	0.734	0.623	1.06	0.963	0.872	1.01	0.952	0.196	0.175	0.167	0.187	0.173	0.439	0.475	0.464	0.454	0.533
LOU-NH91	0.782	0.809	0.695	0.808	0.785	0.518	0.454	0.469	0.478	0.527	0.387	0.338	0.326	0.367	0.331	0.553	0.49	0.468	0.528	0.566
NCI-H460	0.13	0.142	0.157	0.239	0.0685	0.99	1.09	1.09	1.21	1.05	0.0275	0.0348	0.0337	0.0344	0.0251	0.392	0.373	0.463	0.365	0.403
SK-LU-1	0.506	0.578	0.488	0.489	0.519	1.38	1.55	1.18	1.37	1.61	0.204	0.222	0.189	0.188	0.205	0.613	0.727	0.624	0.578	0.513
EPLC-272H	0.285	0.274	0.278	0.276	0.285	1.03	1.01	0.778	0.866	0.873	0.259	0.83	0.327	0.363	0.27	0.321	0.458	0.294	0.345	0.374
A-427	0.795	0.871	0.77	0.82	0.741	0.998	0.991	0.982	0.779	1.07	0.943	0.872	0.85	0.893	0.911	0.742	0.925	0.741	0.774	0.98
